Data: US5679648A, “Methods for the treatment and prevention of fungal infections by administration of 3'-deoxypurine nucleosides” (The University Hospital, priority 1994, dated 1997)
Like-named read-outs stand apart in the source and are kept apart here.

Assays:
[1] = system: protein kinase C (PK-C); assay: PK-C activity in TdT-positive and TdT-negative cell lines after exposure; format: cell-based
Method: (§1) Cell lines were maintained in FCS/DMEM (GIBCO/BRL; Grand Island, N.Y.) at 37° C. with 5% CO2 and treated with cordycepin, coformycin or cordycepin plus coformycin, or remain untreated as controls. […] Since apoptosis in normal TdT-positive thymocytes is stimulated by protein kinase A (PK-A) activity, and inhibited by protein kinase C (PK-C) activity, PK-A and PK-C activities were measured in TdT-positive and TdT-negative cell lines after exposure to cordycepin.

[2] = system: C. tropicalis; assay: MIC of 3'-deoxynucleosides in cell cultures (microtiter plates, 24 hours); format: cell-based; settings: Candida tropicalis
Method: (§2) Cell cultures of various organisms were established in microtiter plates and maintained for a period of 24 hours after the addition of a 3'-deoxynucleoside (3'-dA, 3'-dG, 3'-dC, 3'-dU) (Calbiochem; San Diego, Calif.; Fluka Chemical; Ronkonkoma, N.Y.; Pharmacia Biotech; Piscataway, N.J.) or amphotericin B in μg/ml (Sigma Chemical; St. Louis, Mo.) as control.

[3] = system: Rhizopus; assay: as above; format: cell-based
Method: as §2

[4] = system: C. neoformans; assay: as above; format: cell-based; settings: Cryptococcus neoformans
Method: as §2

[5] = system: C. albicans; assay: as above; format: cell-based; settings: Candida albicans
Method: as §2

[6] = system: A. fumigatus; assay: as above; format: cell-based; settings: Aspergillus fumigatus
Method: as §2

[7] = system: HPB-ALL; assay: Cytotoxicity to neoplastic cells in tissue culture; format: cell-based; settings: HPB-ALL (TdT-positive), in the presence of coformycin; read-out: cytotoxic IC50
Method: (§3) Cell lines were maintained in FCS/DMEM (GIBCO/BRL; Grand Island, N.Y.) at 37° C. with 5% CO2 and treated with cordycepin, coformycin or cordycepin plus coformycin, or remain untreated as controls. In the presence of coformycin, cordycepin was specifically cytotoxic at IC50 of less than 0.5 μM for the TdT-positive cells NALM-6, HPB-ALL, MOLT-4, CEM and 8402 cells. […] The earliest manifestations of cytotoxic damage by cordycepin in TdT (terminal deoxynudeotidyl tranferase)-positive cells was the emergence of classic features of apoptosis such as membrane blebbing, volume loss, chromatin clumping and inter-nucleosomal DNA digestion into 180 base pair (bp) multiples. In contrast, the cytotoxic damage seen when TdT-negative cells are exposed to high levels (greater than 5.0 μM) of cordycepin is associated with random DNA breakdown and necrosis. Since apoptosis in normal TdT-positive thymocytes is stimulated by protein kinase A (PK-A) activity, and inhibited by protein kinase C (PK-C) activity, PK-A and PK-C activities were measured in TdT-positive and TdT-negative cell lines after exposure to cordycepin.

[8] = system: CEM; assay: Cytotoxicity to neoplastic cells in tissue culture; format: cell-based; settings: CEM (TdT-positive), in the presence of coformycin; read-out: cytotoxic IC50
Method: as §3

[9] = system: 8402 cells; assay: Cytotoxicity to neoplastic cells in tissue culture; format: cell-based; settings: 8402 (TdT-positive), in the presence of coformycin; read-out: cytotoxic IC50
Method: as §3

[10] = system: MOLT-4; assay: Cytotoxicity to neoplastic cells in tissue culture; format: cell-based; settings: MOLT-4 (TdT-positive), in the presence of coformycin; read-out: cytotoxic IC50
Method: as §3

[11] = system: NALM-6; assay: Cytotoxicity to neoplastic cells in tissue culture; format: cell-based; settings: NALM-6 (TdT-positive), in the presence of coformycin; read-out: cytotoxic IC50
Method: as §3

[12] = system: Candida albicans; assay: Time to reach LD50 in Candida albicans infected mice; format: in vivo; settings: ICR mice, 10^6 cfu C. albicans; 10 days i.p.: 3'-deoxyadenosine 1.5, deoxycoformycin 0.4, amphotericin B 1.0 mg/kg/day; control 6
Method: Halen Sprague Dawley ICR mice were injected with approximately 10^6 cfu Candida albicans and treated for 10 days with the following agents: 3'-deoxyadenosine (Sigma Chemical; St. Louis, Mo.) at 1.5 mg/kg/day i.p., deoxycoformycin (Sigma Chemical; St. Louis, Mo.) at 0.4 mg/kg/day i.p., amphotericin B (Sigma Chemical; St. Louis, Mo.) at 1.0 mg/kg/day i.p. Time in days to reach LD50 is shown in Table 4.

[13] = system: Candida albicans; assay: Mortality in Candida albicans infected mice; format: in vivo; settings: ICR mice, 10^6 cfu C. albicans; for Survival After 25 Days: 10 days i.p.: 3'-deoxyadenosine 1.5, deoxycoformycin 0.4, amphotericin B 1.0 mg/kg/day, n=10, control 40%; for Survival After 15 Days: second experiment, 10 days i.p., same doses, n=8, control 0%
Method: Halen Sprague Dawley ICR mice were injected is with approximately 10^6 cfu of Candida albicans. Twenty-four hours after injection, mice were treated for 10 days with the indicated agents: 3'-deoxyadenosine (Sigma Chemical; St. Louis, Mo.) at 1.5 mg/kg/day i.p., deoxycoformycin (Sigma Chemical; St. Louis, Mo.) at 0.4 mg/kg/day i.p., amphotericin B (Sigma Chemical; St. Louis, Mo.) at 1.0 mg/kg/day i.p. Survival after 25 days is shown in Tables 2 and 3.

[14] = system: protein kinase A (PK-A); assay: PK-A activity in TdT-positive and TdT-negative cell lines after exposure; format: cell-based
Method: as §1

[15] = C. tropicalis, 24 hours, read-out: MIC
[16] = C. neoformans, 24 hours, read-out: MIC
[17] = C. albicans, 24 hours, read-out: MIC
[18] = A. fumigatus, 24 hours, read-out: MIC

MIC [2, 15] | MIC ([3]; 24 hours, read-out: MIC) | MIC [4, 16] | MIC [5, 17] | MIC [6, 18] | Compound | Days to Reach LD50 [12] | Survival After 25 Days [13] | Survival After 15 Days [13] | other results
> 20 µM | > 20 µM | > 20 µM | > 20 µM | 20 µM | Nc1ccn([C@@H]2O[C@H](CO)C[C@H]2O)c(=O)n1 [3'-dC] | – | – | – | –
> 20 µM | > 20 µM | > 20 µM | > 20 µM | > 20 µM | Nc1nc2c(ncn2[C@@H]2O[C@H](CO)C[C@H]2O)c(=O)[nH]1 [3'-dG] | – | – | – | –
> 20 µM | > 20 µM | > 20 µM | > 20 µM | > 20 µM | O=c1ccn([C@@H]2O[C@H](CO)C[C@H]2O)c(=O)[nH]1 [3'-dU] | – | – | – | –
– | – | – | – | – | C[C@@H]1[C@H](O)[C@@H](C)/C=C/C=C/C=C/C=C/C=C/C=C/C=C/[C@H](O[C@@H]2O[C@H](C)[C@@H](O)[C@H](N)[C@@H]2O)C[C@@H]2O[C@](O)(C[C@@H](O)C[C@@H](O)[C@H](O)CC[C@@H](O)C[C@@H](O)CC(=O)O[C@H]1C)C[C@H](O)[C@H]2C(=O)O [Amphotericin B, amphotericin B] | > 30 days | 90% | 50.0% | MIC ([2]; 24 h): 1.25 µg/mL; MIC ([3]; 24 h): 2.5 µg/mL; MIC ([4]; 24 h): 2.5 µg/mL; MIC ([5]; 24 h): < 0.6 µg/mL; MIC ([6]; 24 h): 1.25 µg/mL
– | – | – | – | – | OC[C@H]1O[C@@H](n2cnc3c2NC=NC[C@H]3O)C[C@@H]1O [deoxycoformycin] | 5 days | 30% | 25.0% | –

Compound | MIC [2, 15] | MIC ([3]; 24 hours, read-out: MIC) | MIC [4, 16] | MIC [5, 17] | MIC [6, 18] | Days to Reach LD50 [12] | Survival After 25 Days [13] | Survival After 15 Days [13] | other results
Nc1ncnc2c1ncn2[C@@H]1O[C@H](CO)C[C@H]1O [3'-dA, 3'-deoxyadenosine] | 20 µM | > 20 µM | 20 µM | 20 µM | 5 µM | 9.5 days | 30% | 37.5% | PK-C activity change ([1]; TdT-negative cells): unchanged; PK-C activity change ([1]; TdT-positive cells): unchanged; IC50 [7]: < 500 nM; IC50 [8]: < 500 nM; IC50 [9]: < 500 nM; IC50 [10]: < 500 nM; IC50 [11]: < 500 nM; PK-A activity change ([14]; TdT-negative cells): unchanged; PK-A activity increase ([14]; TdT-positive cells, within 2 hours of exposure): 8-10 fold
